Data on 21 compounds can be found in patent US20140135359A1, “METHODS OF DESIGNING, PREPARING, AND USING NOVEL PROTONOPHORES” (priority 2012, published 2014).

Read-outs that look alike come from different tables or passages of the source.

Assay [1] has as its system isolated rat liver mitochondria. Briefly: Residual functional capacity / inhibitory effect on ADP-stimulated (state 3) oxygen consumption. The following applies: for inhibition of ADP-stimulated oxygen consumption: screening at 100 μM. Type of assay: biochemical.
The test system is the same in assay [2]. The assay can be described thus: Uncoupling activity: increase in basal (state 4) oxygen consumption by oxygraphy. Type of assay: biochemical. The following applies: for Measured Uncoupling (% uncoupling ± SEM @ 100 μM): Table 1A, relative to ADP-stimulated respiration = 100%.
[3] abbreviates: test conc. 100 μM, functional capacity (state 3 minus state 4 rate) as % of vehicle-treated mitochondria.
The mark [4] stands for this setting: Suppl. Table 1, 100 μM, 2-3 mitochondrial preparations.
[5] abbreviates: test conc. 100 μM, increase in basal (state 4) oxygen consumption as % of average ADP-stimulated (state 3) rate in vehicle-treated mitochondria.
Where [6] appears, read: test conc. 25 μM, functional capacity (state 3 minus state 4 rate) as % of vehicle-treated mitochondria.
The mark [7] stands for this setting: test conc. 25 μM, increase in basal (state 4) oxygen consumption as % of average ADP-stimulated (state 3) rate in vehicle-treated mitochondria.

In the case of `O=C(O)c1cc(O)c(O)c(O)c1` [gallic acid], in assay [1] (test conc. 100 μM), the “Inhibitory effect (%)” value was 2%. Besides, in assay [1] (setting [3]), the “Residual capacity (%)” value was found to be 98 ± 1%. In assay [2] (setting [4]), the “Measured Uncoupling Activity (% uncoupling ± SEM @ 100 μM)” value was −2 ± 1 % uncoupling. Further, the “Uncoupling (%)” value in assay [2] (setting [5]) is −2 ± 1%.

With `O=c1c(-c2ccc(O)cc2)coc2cc(O)cc(O)c12` [genistein], the results for the “Inhibitory effect (%)” value in assay [1] (test conc. 25 μM) and in assay [1] (test conc. 100 μM) were 15% and 6%, respectively. Also, the “Residual capacity (%)” value came out at 77 ± 1% in assay [1] (setting [6]) and 20 ± 0% in assay [1] (setting [3]). Moreover, in assay [2] (setting [4]), the “Measured Uncoupling Activity (% uncoupling ± SEM @ 100 μM)” value was 74 ± 4 % uncoupling. In assay [2] (100 μM), the “Measured Uncoupling (% uncoupling ± SEM @ 100 μM)” value is 74 ± 4 % uncoupling. The figures for the “Uncoupling (%)” value in assay [2] (setting [7]) and in assay [2] (setting [5]) were 8 ± 0% and 74 ± 4%, respectively.

In the case of `COc1cc(/C=C/C(=O)c2ccc(O)cc2O)ccc1O` [homobutein], the “inhibitory effect on oxidative phosphorylation” value in assay [1] (50 μM (FIG. 19)) is on record as “inhibition of ADP-stimulated consumption”. The “Inhibitory effect (%)” value came out at 15% in assay [1] (test conc. 25 μM) and 22% in assay [1] (test conc. 100 μM). For the same compound, the entries for the “Residual capacity (%)” value in assay [1] (setting [6]) and in assay [1] (setting [3]) were 79 ± 7% and 22 ± 3%, respectively. Also, the uncoupling activity entry in assay [2] (50 μM in 0.1% DMSO (FIG. 19)) is “partial uncoupling”. The “Measured Uncoupling Activity (% uncoupling ± SEM @ 100 μM)” value in assay [2] (setting [4]) stood at 56 ± 5 % uncoupling. Further, in assay [2] (100 μM), the “Measured Uncoupling (% uncoupling ± SEM @ 100 μM)” value worked out at 56 ± 5 % uncoupling. The “Uncoupling (%)” value was determined as 6 ± 0% in assay [2] (setting [7]) and 56 ± 5% in assay [2] (setting [5]).

Take `Oc1ccc(O)cc1` [hydroquinone]: in assay [1] (test conc. 100 μM), the “Inhibitory effect (%)” value stood at 10%. Further, the “Residual capacity (%)” value in assay [1] (setting [3]) is 90 ± 8%. Moreover, in assay [2] (setting [4]), the “Measured Uncoupling Activity (% uncoupling ± SEM @ 100 μM)” value came to 0 ± 1 % uncoupling. The “Uncoupling (%)” value in assay [2] (setting [5]) was found to be 0 ± 1%.

Take `O=c1c(O)c(-c2ccc(O)cc2O)oc2cc(O)cc(O)c12` [morin]: in assay [1], the “inhibition of ADP-stimulated oxygen consumption” value (shortened to “inhibition”) is given as “inhibitory activity”. In assay [1] (test conc. 100 μM), the “Inhibitory effect (%)” value was determined as 60%. Moreover, the “Residual capacity (%)” value in assay [1] (setting [3]) is on record as 39 ± 3%. In addition, in assay [2] (setting [4]), the “Measured Uncoupling Activity (% uncoupling ± SEM @ 100 μM)” value came out at 1 ± 0 % uncoupling. The “Uncoupling (%)” value in assay [2] (setting [5]) is 1 ± 0%.

On to `O=c1c(O)c(-c2cc(O)c(O)c(O)c2)oc2cc(O)cc(O)c12` [myricetin], for which the “Inhibitory effect (%)” value was found to be 28% in assay [1] (test conc. 25 μM) and 43% in assay [1] (test conc. 100 μM). In addition, the figures for the “Residual capacity (%)” value in assay [1] (setting [6]) and in assay [1] (setting [3]) were 66 ± 2% and 46 ± 3%, respectively. Moreover, the “Measured Uncoupling Activity (% uncoupling ± SEM @ 100 μM)” value in assay [2] (setting [4]) is reported as 11 ± 0 % uncoupling. Moreover, the “Uncoupling (%)” value was 6 ± 3% in assay [2] (setting [7]) and 11 ± 0% in assay [2] (setting [5]).

In the case of `Oc1ccccc1` [phenol], in assay [1], the “Inhibitory effect (%)” value worked out at 4% and the “Residual capacity (%)” value amounted to 96 ± 4%. In assay [2], the “Measured Uncoupling Activity (% uncoupling ± SEM @ 100 μM)” value was 0 ± 0 % uncoupling and the “Uncoupling (%)” value was 0 ± 0%.

`O=C(CCc1ccc(O)cc1)c1c(O)cc(O)cc1O` [phloretin]: the “Inhibitory effect (%)” value in assay [1] (test conc. 25 μM) was determined as 0%; in assay [1] (test conc. 100 μM), 44%. In addition, the “Residual capacity (%)” value in assay [1] (setting [6]) came to 99 ± 12%; in assay [1] (setting [3]), 41 ± 17%. Moreover, the “Measured Uncoupling Activity (% uncoupling ± SEM @ 100 μM)” value in assay [2] (setting [4]) amounted to 15 ± 3 % uncoupling. Besides, the “Uncoupling (%)” value in assay [2] (setting [7]) was found to be 3 ± 1%; in assay [2] (setting [5]), 15 ± 3%.

As for `Oc1cc(O)cc(/C=C/c2ccc(O)c(O)c2)c1` [piceatannol (trans)], the “Inhibitory effect (%)” value in assay [1] (test conc. 25 μM) amounted to 64%; in assay [1] (test conc. 100 μM) it was 89%. Besides, the “Residual capacity (%)” value in assay [1] (setting [6]) was found to be 35 ± 7%; in assay [1] (setting [3]), 6 ± 3%. Moreover, the “Uncoupling (%)” value in assay [2] (setting [7]) is given as 1 ± 1%; in assay [2] (setting [5]), 5 ± 1%.

Turning to `Oc1cccc(O)c1O` [pyrogallol], the “Inhibitory effect (%)” value in assay [1] (test conc. 100 μM) came out at 16%. The “Residual capacity (%)” value in assay [1] (setting [3]) is recorded as 83 ± 17%. For the same compound, the “Measured Uncoupling Activity (% uncoupling ± SEM @ 100 μM)” value in assay [2] (setting [4]) turned out to be 1 ± 1 % uncoupling. Also, the “Uncoupling (%)” value in assay [2] (setting [5]) was determined as 1 ± 1%.

As for `O=c1c(O)c(-c2ccc(O)c(O)c2)oc2cc(O)cc(O)c12` [quercetin], the “inhibition” value in assay [1] is listed as “inhibitory activity”. Further, the “Inhibitory effect (%)” value in assay [1] (test conc. 25 μM) was determined as 36%; in assay [1] (test conc. 100 μM) it was 80%. For the same compound, the “Residual capacity (%)” value in assay [1] (setting [6]) is recorded as 60 ± 10%; in assay [1] (setting [3]), 12 ± 5%. In assay [2] (setting [4]), the “Measured Uncoupling Activity (% uncoupling ± SEM @ 100 μM)” value is 8 ± 1 % uncoupling. The “Uncoupling (%)” value in assay [2] (setting [7]) stood at 4 ± 0%; in assay [2] (setting [5]), 8 ± 1%.

As to `Oc1cccc(O)c1` [resorcinol], in assay [1] (test conc. 100 μM), the “Inhibitory effect (%)” value is given as 9%. The “Residual capacity (%)” value in assay [1] (setting [3]) is on record as 91 ± 3%. In addition, the “Measured Uncoupling Activity (% uncoupling ± SEM @ 100 μM)” value in assay [2] (setting [4]) came out at 0 ± 0 % uncoupling. In addition, the “Uncoupling (%)” value in assay [2] (setting [5]) stood at 0 ± 0%.

`Oc1ccc(C=Cc2cc(O)cc(O)c2)cc1` [resveratrol (trans)]: the “Inhibitory effect (%)” value in assay [1] (test conc. 25 μM) came out at 29%; in assay [1] (test conc. 100 μM) it was 62%. For the same compound, the “Residual capacity (%)” value in assay [1] (setting [6]) is reported as 71 ± 9%; in assay [1] (setting [3]) it was 36 ± 4%. The “Uncoupling (%)” value in assay [2] (setting [7]) was 0 ± 0%; in assay [2] (setting [5]), 2 ± 0%.

With `O=C(O)c1ccccc1O` [salicylic acid], in assay [1] (test conc. 100 μM), the “Inhibitory effect (%)” value is given as 6%. The “Residual capacity (%)” value in assay [1] (setting [3]) was 90 ± 2%. Further, the “Measured Uncoupling Activity (% uncoupling ± SEM @ 100 μM)” value in assay [2] (setting [4]) is reported as 4 ± 0 % uncoupling. In addition, in assay [2] (setting [5]), the “Uncoupling (%)” value was 4 ± 0%.

In the case of `COc1ccc(-c2cc(=O)c3c(O)cc(O)c(-c4cc(-c5cc(=O)c6c(O)cc(OC)cc6o5)ccc4OC)c3o2)cc1` [sciadopitysin], in assay [1] (test conc. 100 μM), the “Inhibitory effect (%)” value is 2%. Besides, in assay [1] (setting [3]), the “Residual capacity (%)” value was determined as 98 ± 0%. The “Measured Uncoupling Activity (% uncoupling ± SEM @ 100 μM)” value in assay [2] (setting [4]) was −1 ± 0 % uncoupling. The “Uncoupling (%)” value in assay [2] (setting [5]) is −1 ± 0%.

In the case of `COc1cc(C2Oc3cc([C@H]4Oc5cc(O)cc(O)c5C(=O)[C@@H]4O)ccc3OC2CO)ccc1O` (stereo partly shown) [silibinin (A and B), silibinin], the “inhibition” value in assay [1] is on record as “inhibitory activity”. For the same compound, the “Inhibitory effect (%)” value in assay [1] (test conc. 100 μM) turned out to be 73%. Further, the “Residual capacity (%)” value in assay [1] (setting [3]) is given as 22 ± 5%. Also, in assay [2] (setting [4]), the “Measured Uncoupling Activity (% uncoupling ± SEM @ 100 μM)” value came out at 5 ± 1 % uncoupling. For the same compound, in assay [2] (setting [5]), the “Uncoupling (%)” value is 5 ± 1%.

With `C(=Cc1ccccc1)c1ccccc1` [stilbene (trans)], in assay [1] (test conc. 100 μM), the “Inhibitory effect (%)” value worked out at 1%. In addition, the “Residual capacity (%)” value in assay [1] (setting [3]) is 99 ± 3%. In assay [2] (setting [5]), the “Uncoupling (%)” value is given as −1 ± 1%.

In the case of `Cc1ccc(C(C)C)c(O)c1` [thymol], the “Inhibitory effect (%)” value in assay [1] (test conc. 100 μM) stood at 29%. Further, the “Residual capacity (%)” value in assay [1] (setting [3]) is on record as 65 ± 5%. In assay [2] (setting [4]), the “Measured Uncoupling Activity (% uncoupling ± SEM @ 100 μM)” value is 6 ± 0 % uncoupling. The “Uncoupling (%)” value in assay [2] (setting [5]) worked out at 6 ± 0%.

`Oc1cc(O)cc(/C=C/c2ccccc2)c1` [trans-pinosylvin, pinosylvin]: the figures for the “Inhibitory effect (%)” value in assay [1] (test conc. 25 μM) and in assay [1] (test conc. 100 μM) were 20% and 34%, respectively. Also, the “Residual capacity (%)” value is reported as 80 ± 13% in assay [1] (setting [6]) and 63 ± 4% in assay [1] (setting [3]). Also, the “Measured Uncoupling Activity (% uncoupling ± SEM @ 100 μM)” value in assay [2] (setting [4]) is 3 ± 3 % uncoupling. Moreover, the entries for the “Uncoupling (%)” value in assay [2] (setting [7]) and in assay [2] (setting [5]) were 0 ± 1% and 3 ± 3%, respectively.

In the case of `COc1cc(C=O)ccc1O` [vanillin], in assay [1] (test conc. 100 μM), the “Inhibitory effect (%)” value is reported as 26%. The “Residual capacity (%)” value in assay [1] (setting [3]) came out at 74 ± 16%. In addition, the “Measured Uncoupling Activity (% uncoupling ± SEM @ 100 μM)” value in assay [2] (setting [4]) amounted to 0 ± 1 % uncoupling. Besides, the “Uncoupling (%)” value in assay [2] (setting [5]) worked out at 0 ± 1%.

“epigallocatechin gallate [(−) epigallocatechin gallate]”: in assay [1] (test conc. 100 μM), the “Inhibitory effect (%)” value stood at 2%. The “Residual capacity (%)” value in assay [1] (setting [3]) was 98 ± 2%. In addition, the “Measured Uncoupling Activity (% uncoupling ± SEM @ 100 μM)” value in assay [2] (setting [4]) came out at 0 ± 1 % uncoupling. Further, in assay [2] (setting [5]), the “Uncoupling (%)” value turned out to be 0 ± 1%.
